Converted amounts (≈) assume the structure as drawn.
How the values were obtained:
[1] = test system: MRSA ATCC43300; test: MIC, broth microdilution (Example 2, Table 6); type: cell-based, Staphylococcus aureus
Experimental: (§1) Methicillin-susceptible Staphylococcus aureus (MSSA) NCTC8325 and methicillin-resistant Staphylococcus aureus (MRSA) ATCC43300 were used as bacteria. The bacteria of each type were cultured using Mueller-Hinton Broth (MH-broth, Difco) as a medium. Then, the minimum inhibitory concentration (MIC) of each of the EGCG derivatives was measured by a broth microdilution method in accordance with the Clinical and Laboratory Standards Institute (CLSI) guidelines (hereinafter the same).
(§2) First, each of the EGCG derivatives was dissolved in 100% dimethyl sulfoxide (DMSO, Wako Pure Chemical Industries, Ltd.) so that the concentration thereof became 5120 μg/ml. The resultant solution was diluted with DMSO or sterile distilled water so as to prepare two-fold dilution series of antibacterial agent solutions. […] Each of these antibacterial agent solutions was dispensed to wells of a 96-well plate. The concentration of the EGCG derivative in the antibacterial agent solution dispensed to the wells was set to be 10 times as high as the final concentration. On the other hand, the bacteria were cultured in the MH-broth at 37° C. overnight, and the thus-obtained pre-culture solution was diluted with a new MH-broth so that the concentration thereof in the MH-broth became 10^−4 (10^4-fold dilution), thus preparing a bacterial culture solution of about 1×10^5 CFU/ml (CFU: Colony Forming Unit, the number of viable cells). The bacterial culture solution was further added to each well, and the mixture was cultured at 37° C. for 18 hours. The ratio (volume ratio) between the antibacterial agent solution and the bacterial culture solution added to each well was set to 1:9 (the antibacterial agent solution:the bacterial culture solution), and the volume of the mixture of them per well was set to 100 μl in total. The final concentration of the EGCG derivative in the mixture was set to 8 μg/ml to 512 μg/ml, and the number of viable cells in the mixture was set to about 1×10^5 CFU/ml. Then, after the completion of the culture, the MIC was determined. Also, the turbidity (OD600 nm) was measured using a plate reader so as to identify minor differences.
Each of the EGCG derivatives was dissolved in 100% DMSO so that the concentration thereof became 1280 μg/ml. The thus-obtained solutions were diluted with sterile distilled water, thus preparing antibacterial agent solutions.
As Comparative Example 2, the same procedures as in Example 2 were performed, except that unsubstituted EGCG was used as an antibacterial agent instead of the EGCG derivatives of Example 2. Furthermore, as a control, the same procedures as in Example 2 were performed, except that sterile distilled water was used instead of the antibacterial agent solutions containing the EGCG derivatives.

[2] = test system: Staphylococcus aureus NCTC8325; test: Antibacterial spectrum MIC (Table 7); type: cell-based
Experimental: as §1, §2
(§3) Regarding the respective type strains shown in Tables 7 and 8 below, the MIC measurement was performed using the antibacterial agent solutions of Example 2 in the same manner as described in Section (2) of Example 1, except for the following. The antibacterial agent solutions were prepared by dissolving the EGCG derivatives of Example 2 in 100% DMSO and then diluting the resultant mixtures with sterile distilled water. The respective strains were derived from ATCC or NCTC. As Moraxella catarrhalis and Aspergillus fumigatus, clinical isolates thereof without an acquired resistance mechanism were used. For nutrient-rich bacteria, namely, Streptococcus pneumoniae ATCC49619, Streptococcus pyogenes ATCC19615, Streptococcus agalactiae ATCC13813, Moraxella catarrhalis, and Haemophilis influenzae ATCC49766, Strepto Haemo supplement (Eiken Chemical Co., Ltd.) was added to media for culturing them. The MIC measurement with respect to fungi was carried out by a broth microdilution method using a RPMI1640/MOPS (pH 7.0) medium in accordance with CLSI guidelines. About 2×10^3 cells/ml of fungi were inoculated to the medium. After the culture at 35° C. for 24 to 48 hours, the MIC was determined. Also, regarding the antibacterial agent solution of Comparative Example 2, the MIC was measured in the same manner.

[3] = test system: Bacillus cereus ATCC14579; test: Antibacterial spectrum MIC (Table 7); type: cell-based
Experimental: as §1, §2, §3

[4] = test system: Staphylococcus epidermis ATCC14990; test: Antibacterial spectrum MIC (Table 7); type: cell-based; settings: for MIC: Staphylococcus epidermis ATCC14990
Experimental: as §1, §2, §3

[5] = test system: Enterobacter cloacae ATCC13047; test: Antibacterial spectrum MIC (Table 7); type: cell-based
Experimental: as §1, §2, §3

[6] = test system: Enterobacter aerogenes ATCC13048; test: Antibacterial spectrum MIC (Table 7); type: cell-based
Experimental: as §1, §2, §3

[7] = test system: Klebsiella oxytoca ATCC8724; test: Antibacterial spectrum MIC (Table 7); type: cell-based
Experimental: as §1, §2, §3

[8] = test system: Moraxella catarrhalis; test: Antibacterial spectrum MIC (Table 7); type: cell-based; settings: Moraxella catarrhalis clinical isolate, Strepto Haemo supplement
Experimental: as §1, §2, §3

[9] = test system: Neisseria meningitidis; test: Antibacterial spectrum MIC (Table 7); type: cell-based
Experimental: as §1, §2, §3

[10] = test system: Haemophilis influenzae ATCC49766; test: Antibacterial spectrum MIC (Table 7); type: cell-based; settings: Strepto Haemo supplement
Experimental: as §1, §2, §3

[11] = test system: Streptococcus agalactiae ATCC13813; test: Antibacterial spectrum MIC (Table 7); type: cell-based; settings: Strepto Haemo supplement
Experimental: as §1, §2, §3

[12] = test system: Staphylococcus aureus ATCC43300 (MRSA); test: Antibacterial spectrum MIC (Table 7); type: cell-based
Experimental: as §1, §2, §3

[13] = test system: Bacillus subtilus ATCC6051; test: Antibacterial spectrum MIC (Table 7); type: cell-based
Experimental: as §1, §2, §3

[14] = test system: Streptococcus pneumoniae ATCC49619; test: Antibacterial spectrum MIC (Table 7); type: cell-based; settings: Strepto Haemo supplement
Experimental: as §1, §2, §3

[15] = test system: Neisseria gonorrhoeae ATCC49226; test: Antibacterial spectrum MIC (Table 7); type: cell-based
Experimental: as §1, §2, §3

[16] = test system: Escherichia coli ATCC25922; test: Antibacterial spectrum MIC (Table 7); type: cell-based
Experimental: as §1, §2, §3

[17] = test system: Serratia marcescens ATCC13880; test: Antibacterial spectrum MIC (Table 7); type: cell-based
Experimental: as §1, §2, §3

[18] = test system: Micrococcus lutus ATCC9341; test: Antibacterial spectrum MIC (Table 7); type: cell-based
Experimental: as §1, §2, §3

[19] = test system: Stenotrophomonas maltophilia ATCC13637; test: Antibacterial spectrum MIC (Table 7); type: cell-based
Experimental: as §1, §2, §3

[20] = test system: Yersinia enterocolitica ATCC9610; test: Antibacterial spectrum MIC (Table 7); type: cell-based
Experimental: as §1, §2, §3

[21] = test system: Enterococcus faecalis ATCC29212; test: Antibacterial spectrum MIC (Table 7); type: cell-based
Experimental: as §1, §2, §3

[22] = test system: Streptococcus pyogenes ATCC19615; test: Antibacterial spectrum MIC (Table 7); type: cell-based; settings: Strepto Haemo supplement
Experimental: as §1, §2, §3

[23] = test system: MRSA clinical isolate No. 10; test: MIC, broth microdilution (Example 2, Table 6); type: cell-based, Staphylococcus aureus

| Compound | MIC [1] [µg/mL] | MIC [2] [µg/mL] | MIC [3] [µg/mL] | MIC [4] [µg/mL] | MIC [5] [µg/mL] | MIC [6] [µg/mL] | MIC [7] [µg/mL] | MIC [8] [µg/mL] | MIC [9] [µg/mL] | MIC [11] [µg/mL] | MIC [12] [µg/mL] | MIC [13] [µg/mL] | MIC [15] [µg/mL] | MIC [16] [µg/mL] | MIC [17] [µg/mL] | MIC [18] [µg/mL] | MIC [19] [µg/mL] | MIC [20] [µg/mL] | MIC [21] [µg/mL] | MIC [22] [µg/mL] | also measured |
| --- | --- | --- | --- | --- | --- | --- | --- | --- | --- | --- | --- | --- | --- | --- | --- | --- | --- | --- | --- | --- | --- |
| EGCG-oleate [EGCG-C18E] | 32 | 32 | 32 | 64 | 64 | 32 | 64 | 32 | 16 | >64 | 64 | 32 | 16 | 64 | 64 | 64 | 32 | 32 | >64 | 64 | MIC [10]: 16 µg/mL; MIC [14]: 16 µg/mL; MIC [23]: 16 µg/mL |
| EGCG-palmitoleate [EGCG-C16E] | 16 | 16 | 16 | 64 | 64 | 32 | 64 | 64 | 16 | >64 | 64 | 16 | 16 | 64 | 64 | 64 | 32 | 32 | 64 | 64 | MIC [10]: 16 µg/mL; MIC [14]: 16 µg/mL; MIC [23]: 16 µg/mL |
| EGCG-stearate [EGCG-C18] | 32 | 32 | 32 | 32 | 64 | 32 | 64 | 64 | 16 | 64 | 32 | 32 | 16 | 64 | 64 | 64 | 32 | 32 | 32 | 64 | antibacterial effect ([4]; Staphylococcus epidermids ATCC14990, comparison among EGCG derivatives): strongest antibacterial effect; MIC [23]: 32 µg/mL |
| O=C(O[C@@H]1Cc2c(O)cc(O)cc2O[C@@H]1c1cc(O)c(O)c(O)c1)c1cc(O)c(O)c(O)c1 [EGCG, Epigallocatechin gallate, reference compound] | >128 | 128 (≈ 279 µM) | 64 (≈ 140 µM) | 128 (≈ 279 µM) | 128 (≈ 279 µM) | 64 (≈ 140 µM) | 128 (≈ 279 µM) | 128 (≈ 279 µM) | 32 (≈ 69.8 µM) | 256 (≈ 558 µM) | 128 (≈ 279 µM) | 64 (≈ 140 µM) | 32 (≈ 69.8 µM) | 128 (≈ 279 µM) | 128 (≈ 279 µM) | 128 (≈ 279 µM) | 64 (≈ 140 µM) | 64 (≈ 140 µM) | 256 (≈ 558 µM) | 128 (≈ 279 µM) | MIC [10]: 32 µg/mL (≈ 69.8 µM); MIC [14]: 32 µg/mL (≈ 69.8 µM); MIC [23]: >128 µg/mL |
| EGCG-α-linoleate [EGCG-C18TE] | 16 | 16 | 32 | 64 | 64 | 32 | 64 | 32 | 16 | >64 | 64 | 32 | 16 | 64 | 64 | 64 | 32 | 32 | 64 | 64 | MIC [10]: 16 µg/mL; MIC [14]: 16 µg/mL; MIC [23]: 16 µg/mL |
| EGCG-linolate [EGCG-C18DE] | 16 | 16 | 16 | 64 | 64 | 32 | 64 | 64 | 16 | >64 | 64 | 32 | 16 | 64 | 64 | 64 | 32 | 32 | 64 | 64 | MIC [10]: 16 µg/mL; MIC [14]: 16 µg/mL; MIC [23]: 16 µg/mL |
| EGCG-dioctanoate [EGCG-C8×2] | 16 | 16 | 16 | 64 | 64 | 16 | 64 | 32 | 16 | 64 | 64 | 32 | 16 | 64 | 64 | 64 | 32 | 32 | 64 | 32 | MIC [10]: 16 µg/mL; MIC [14]: 16 µg/mL; MIC [23]: 16 µg/mL |

— patent US9801850B2, “Antibacterial agent” (OSAKA UNIVERSITY, priority 2009, dated 2017)
